Results as given in PubChem BioAssay (NCI).
Where “and” joins values, the source holds several entries; their conditions need not be identical. Equal values may be shown once.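 Protocol summary: plate cells (96-well), add compound at 5 concentrations, incubate 48 h, interpolate endpoints linearly. GI50: concentration for 50% inhibition of growth. TGI: total growth inhibition.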 *1 amine or outer side, *2 acyl side, *3 side chain or, on linkers, in order; H or OH if unused. Where a SMILES comes first, the peptide text is derived from it. Bridges are numbered along the chain shown (N, C = ends). Roman numbers before positions name the chains, in order. [ ]: non-standard residue; d: D form. Actinocin(9to1) = Cc1c2oc3c(C)ccc(C(=O)[*:1])c3nc-2c(C(=O)[*:2])c(N)c1=O; NMeV = CN[CH](C(=O)O)C(C)C; Sar = CNCC(=O)O

Experiments:
Test in all cases: NCI tumour cell line growth inhibition, 48 h
SK-OV-3 ovarian = tested on: SK-OV-3 ovarian
BT-549 breast = tested on: BT-549 breast
SN12C renal = tested on: SN12C renal
HOP-92 NSCLC = tested on: HOP-92 NSCLC
SK-MEL-28 melanoma = tested on: SK-MEL-28 melanoma
OVCAR-4 ovarian = tested on: OVCAR-4 ovarian
SR leukemia = tested on: SR leukemia
MCF7 breast = tested on: MCF7 breast
SNB-75 CNS = tested on: SNB-75 CNS
MDA-MB-435 = tested on: MDA-MB-435

SMILES | GI50 (SK-OV-3 ovarian) [µM] | TGI (SK-OV-3 ovarian) | TGI (BT-549 breast) [µM] | TGI (SN12C renal) | GI50 (HOP-92 NSCLC) [µM] | TGI (SK-MEL-28 melanoma) | TGI (OVCAR-4 ovarian) | TGI (SR leukemia) [µM] | TGI (MCF7 breast) | TGI (SNB-75 CNS) [µM] | TGI (MDA-MB-435) | GI50 (SN12C renal) [µM] | TGI (HOP-92 NSCLC) | GI50 (SK-MEL-28 melanoma) [µM] | GI50 (BT-549 breast) [µM] | GI50 (SNB-75 CNS) [µM] | GI50 (MDA-MB-435) [µM] | GI50 (OVCAR-4 ovarian) [µM] | GI50 (MCF7 breast) [µM]
Cc1c(CNc2ccc(C(=O)NC(CCCNC(=O)c3ccccc3C(=O)O)C(=O)O)cc2)cnc2nc(N)nc(N)c12 (centres undefined) | > 100 | > 100 µM | 6.62 | > 100 µM | > 100 | – | – | – | – | – | – | – | – | – | – | – | – | – | –
Cc1c2oc3c(C)ccc(C(=O)NC4C(=O)NC(Cc5ccccc5)C(=O)N5CCCC5C(=O)N(C)CC(=O)N(C)C(C(C)C)C(=O)OC4C)c3nc-2c(C(=O)NC2C(=O)NC(Cc3ccccc3)C(=O)N3CCCC3C(=O)N(C)CC(=O)N(C)C(C(C)C)C(=O)OC2C)c(N)c1=O (centres undefined) (I: TFP[Sar][NMeV] / II: TFP[Sar][NMeV]; ester I:1-I:C, II:1-II:C; linker I:N-II:N via Actinocin(9to1); configuration not given here) | – | 0.524 µM | 0.0135 | – | – | 0.0298 µM and 0.0417 µM | 0.383 µM and 0.467 µM | < 0.001 | > 100 µM | 0.049 | 0.0222 µM | – | – | – | – | – | – | – | –
CCC1(O)CC(OC2CC(N(C)C)C(OC3CC(O)C(OC4OC(C)C(=O)C=C4N)C(C)O3)C(C)O2)c2c(cc3c(c2O)C(=O)c2c(O)cccc2C3=O)C1C(=O)OC (centres undefined) | – | 2.51 µM and 4.32 µM | – | 1.51 µM and 2.29 µM | 0.0377 | 0.363 µM and 0.189 µM | – | 1.06 | 0.756 µM and 2.64 µM | 0.555 | 0.282 µM and 0.05 µM | 0.0924 | 1.41 µM and 2.8 µM | – | – | – | – | – | –
O=c1c2cc(C(F)(F)F)ccc2sc2c(NCCCNCCO)nc3ccccc3c12 | – | – | 24.9 | 3.12 µM | 1.08 | 3.32 µM | – | – | – | 2.87 | 3.04 µM | 1.64 | 2.4 µM | 1.87 | 5.28 | 1.48 | 1.62 | – | –
Cc1cc(-n2nnc(C(=O)O)c2-c2ccccc2)c2ccc(Cl)cc2n1 | – | > 100 µM | > 100 | > 100 µM | – | > 100 µM | > 100 µM | – | > 100 µM | > 100 | > 100 µM | – | > 100 µM | – | – | – | – | – | –
CN1CCN(Cc2c[nH]c3c2C(=O)c2c(c(O)c4ccccc4c2O)C3=O)CC1 | 28.4 | 55.2 µM | 34.5 | 21.9 µM | 7.09 | 38.3 µM | 42.6 µM | – | 17.7 µM | 55.7 | 16.4 µM | 10.3 | 21.8 µM | 19.6 | 18.6 | 26.6 | 3.98 | 21.3 | 5.15
CNc1nnc(CCCCCCCCc2nnc(NC)o2)o1 | – | > 100 µM | > 100 | > 100 µM | – | > 100 µM | > 100 µM | – | 38.3 µM | > 100 | > 100 µM | – | > 100 µM | – | – | – | – | – | –
ClC(Cl)(Cl)C1CCOC1n1nnc2ccccc21 (centres undefined) | – | > 100 µM | 86 | > 100 µM | – | – | – | – | > 100 µM | 54.3 | > 100 µM | – | – | – | – | – | – | – | –
c1nc(NCCc2cnc[nH]2)c2[nH]cnc2n1 | – | > 100 µM | > 100 | > 100 µM | – | > 100 µM | > 100 µM | > 100 | – | > 100 | > 100 µM | – | > 100 µM | – | – | – | – | – | –
O=C1CCCNn2c(nc3ncccc3c2=O)N1 | – | > 100 µM | > 100 | – | – | – | > 100 µM | – | > 100 µM | > 100 | > 100 µM | – | > 100 µM | – | – | – | – | – | –
NCCCN(CCCCN(CCCN)C(=O)OCc1ccccc1)C(=O)OCc1ccccc1 | – | > 100 µM | > 100 | > 100 µM | – | > 100 µM | > 100 µM | – | 77.7 µM | > 100 | > 100 µM | – | > 100 µM | – | – | – | – | – | –
O=C(/C(=C(/O)c1ccccc1)c1nc2ccccc2sc1=O)c1ccccc1 | – | 77.3 µM | > 100 | 90.5 µM | – | > 100 µM | > 100 µM | – | 75.5 µM | > 100 | > 100 µM | – | > 100 µM | – | – | – | – | – | –
C#CC[C@@]12CC(=O)C[C@@H]1CCC1(C2)OCCO1 (tested in a mixture with another compound) | – | > 100 µM | – | > 100 µM | – | > 100 µM | > 100 µM | – | > 100 µM | > 100 | – | – | > 100 µM | – | – | – | – | – | –
COc1cc(/C=C2\CC/C(=C\c3cc(OC)c(O)c(OC)c3)C2=O)cc(OC)c1O | – | > 100 µM | 7.44 | > 29.3 µM | – | – | 6.05 µM | > 100 | > 26.7 µM | 8.06 | 4.19 µM | – | – | – | – | – | – | – | –
CC1CC[C@@]2(OC1)O[C@H]1[C@H](O)[C@H]3[C@@H]4CC[C@H]5C[C@@H](OC6OC(CO)C(OC7OC(CO)C(O)C(OC8OCC(O)C(O)C8O)C7OC7OC(CO)C(O)C(O)C7OC7OC(CO)C(O)C(O)C7O)C(O)C6O)[C@H](O)C[C@]5(C)[C@H]4CC[C@]3(C)[C@H]1[C@@H]2C (some centres undefined) | – | – | > 10 | > 10 µM | – | > 10 µM | > 10 µM | – | 7.71 µM | > 10 | > 10 µM | – | > 10 µM | – | – | – | – | – | –
